Data taken from US9642831B2, “Substituted chromanes and method of use” (AbbVie S.á.r.l., priority 2014, dated 2017).

Molecular target: F508delCFTR (Homo sapiens, UniProt P13569, DEL508-508)
Assay: Cell Surface Expression-Horse Radish Peroxidase (CSE-HRP) assay
Type: cell-based
Design: expressed in transfected cells; host or cells: CFBE41o- human lung derived epithelial cell line, doxycycline-inducible
Details: CFBE4lo-F508delCFTR-HRP cells; for EC50: 18-24 hours at 33° C., 8-point curve, highest concentration 20 μM, luminescence readout; for Emax: maximum % activity at any tested concentration, normalized to on-plate positive control (3 μM Example 1)
How it was run: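 Following 18-24 h compound exposure at 33° C. Expression was doxycycline-induced beforehand. % activity versus DMSO and a 3 μM corrector control gave maximum activity and EC50 from a variable-Hill sigmoidal fit.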

F508delCFTR, sequence (P13569 with tags, fused parts or gaps DEL508-508): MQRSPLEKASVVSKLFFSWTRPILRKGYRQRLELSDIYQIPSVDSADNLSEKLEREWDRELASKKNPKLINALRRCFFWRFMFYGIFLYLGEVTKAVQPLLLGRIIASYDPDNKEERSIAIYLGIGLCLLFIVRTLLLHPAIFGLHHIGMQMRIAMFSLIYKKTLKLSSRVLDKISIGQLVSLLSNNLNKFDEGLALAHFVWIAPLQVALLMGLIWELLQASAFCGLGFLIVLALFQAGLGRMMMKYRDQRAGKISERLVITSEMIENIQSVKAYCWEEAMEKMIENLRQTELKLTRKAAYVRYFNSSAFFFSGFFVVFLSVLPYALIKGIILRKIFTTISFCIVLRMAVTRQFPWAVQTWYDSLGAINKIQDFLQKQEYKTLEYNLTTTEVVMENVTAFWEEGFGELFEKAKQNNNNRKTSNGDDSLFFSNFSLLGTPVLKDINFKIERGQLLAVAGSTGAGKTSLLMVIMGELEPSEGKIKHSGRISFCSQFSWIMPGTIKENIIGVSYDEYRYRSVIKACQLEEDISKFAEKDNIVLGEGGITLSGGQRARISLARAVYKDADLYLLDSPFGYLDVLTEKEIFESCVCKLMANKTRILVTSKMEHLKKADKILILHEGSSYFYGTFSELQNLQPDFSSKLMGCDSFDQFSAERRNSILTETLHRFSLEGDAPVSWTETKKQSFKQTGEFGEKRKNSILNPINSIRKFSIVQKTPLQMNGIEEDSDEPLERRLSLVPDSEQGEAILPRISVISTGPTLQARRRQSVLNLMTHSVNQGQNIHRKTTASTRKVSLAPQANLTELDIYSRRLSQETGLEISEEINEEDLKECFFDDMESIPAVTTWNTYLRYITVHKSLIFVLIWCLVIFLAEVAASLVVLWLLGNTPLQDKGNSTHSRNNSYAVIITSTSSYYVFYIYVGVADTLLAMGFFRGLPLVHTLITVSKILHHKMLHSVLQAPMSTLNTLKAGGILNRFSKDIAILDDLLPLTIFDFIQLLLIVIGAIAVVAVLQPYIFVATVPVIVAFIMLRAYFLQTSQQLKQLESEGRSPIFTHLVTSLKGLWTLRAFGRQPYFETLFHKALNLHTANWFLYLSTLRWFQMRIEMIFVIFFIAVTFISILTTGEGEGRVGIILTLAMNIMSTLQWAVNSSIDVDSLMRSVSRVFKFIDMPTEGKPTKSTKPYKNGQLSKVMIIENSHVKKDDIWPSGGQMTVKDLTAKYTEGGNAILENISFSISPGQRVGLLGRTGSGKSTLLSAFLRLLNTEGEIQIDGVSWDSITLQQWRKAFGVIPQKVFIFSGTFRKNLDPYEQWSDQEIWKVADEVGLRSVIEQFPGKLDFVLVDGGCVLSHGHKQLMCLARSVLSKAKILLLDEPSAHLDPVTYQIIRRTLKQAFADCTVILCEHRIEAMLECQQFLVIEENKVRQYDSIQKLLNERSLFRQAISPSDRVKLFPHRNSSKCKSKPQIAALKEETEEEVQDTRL

EC50	Emax	Structure (SMILES)
940 nM	119%	COCCOc1ccc2c(c1)O[C@@H](c1cccc(C(=O)OC)c1)C[C@H]2NC(=O)C1(c2ccc3c(c2)OC(F)(F)O3)CC1 [Example 94, methyl 3-[(2R,4R)-4-({[1-(2,2-difluoro-1,3-benzodioxol-5-yl)cyclopropyl]carbonyl}amino)-7-(2-methoxyethoxy)-3,4-dihydro-2H-chromen-2-yl]benzoate]
920 nM	98%	COC(=O)c1cccc([C@H]2C[C@@H](NC(=O)C3(c4ccc5c(c4)OC(F)(F)O5)CC3)c3ccc(OCc4ccccc4)cc3O2)c1 [Example 95, methyl 3-[(2R,4R)-7-(benzyloxy)-4-({[1-(2,2-difluoro-1,3-benzodioxol-5-yl)cyclopropyl]carbonyl}amino)-3,4-dihydro-2H-chromen-2-yl]benzoate]
≥ 20000 nM	15%	O=C(O)COc1ccc2c(c1)O[C@@H](c1cccc(C(=O)O)c1)C[C@H]2NC(=O)C1(c2ccc3c(c2)OC(F)(F)O3)CC1 [Example 96, 3-[(2R,4R)-7-(carboxymethoxy)-4-({[1-(2,2-difluoro-1,3-benzodioxol-5-yl)cyclopropyl]carbonyl}amino)-3,4-dihydro-2H-chromen-2-yl]benzoic acid]
380 nM	90%	COCCOc1ccc2c(c1)O[C@@H](c1cccc(C(=O)O)c1)C[C@H]2NC(=O)C1(c2ccc3c(c2)OC(F)(F)O3)CC1 [Example 97, 3-[(2R,4R)-4-({[1-(2,2-difluoro-1,3-benzodioxol-5-yl)cyclopropyl]carbonyl}amino)-7-(2-methoxyethoxy)-3,4-dihydro-2H-chromen-2-yl]benzoic acid]
570 nM	102%	O=C(O)c1cccc([C@H]2C[C@@H](NC(=O)C3(c4ccc5c(c4)OC(F)(F)O5)CC3)c3ccc(OCc4ccccc4)cc3O2)c1 [Example 98, 3-[(2R,4R)-7-(benzyloxy)-4-({[1-(2,2-difluoro-1,3-benzodioxol-5-yl)cyclopropyl]carbonyl}amino)-3,4-dihydro-2H-chromen-2-yl]benzoic acid]
3890 nM	56%	O=C(NC1CC2(CCN(C[C@@H](O)CO)CC2)Oc2cc(F)ccc21)C1(c2ccc3c(c2)OC(F)(F)O3)CC1 (stereo partly drawn) [Example 99, 1-(2,2-difluoro-1,3-benzodioxol-5-yl)-N-{1′-[(2R)-2,3-dihydroxypropyl]-7-fluoro-3,4-dihydrospiro[chromene-2,4′-piperidin]-4-yl}cyclopropanecarboxamide]
3080 nM	40%	O=C(OCc1ccccc1)N1CC2(CC(NC(=O)C3(c4ccc5c(c4)OC(F)(F)O5)CC3)c3ccc(F)cc3O2)C1 (centres unmarked) [Example 100, benzyl 4′-({[1-(2,2-difluoro-1,3-benzodioxol-5-yl)cyclopropyl]carbonyl}amino)-7′-fluoro-3′,4′-dihydro-1H-spiro[azetidine-3,2′-chromene]-1-carboxylate]
6650 nM	60%	CS(=O)(=O)N1CCC2(CC1)CC(NC(=O)C1(c3ccc4c(c3)OC(F)(F)O4)CC1)c1ccc(F)cc1O2 (centres unmarked) [Example 101, 1-(2,2-difluoro-1,3-benzodioxol-5-yl)-N-[7-fluoro-1′-(methylsulfonyl)-3,4-dihydrospiro[chromene-2,4′-piperidin]-4-yl]cyclopropanecarboxamide]
4860 nM	89%	CC(=O)N1CCC2(CC1)CC(NC(=O)C1(c3ccc4c(c3)OC(F)(F)O4)CC1)c1ccc(F)cc1O2 (centres unmarked) [Example 102, N-(1′-acetyl-7-fluoro-3,4-dihydrospiro[chromene-2,4′-piperidin]-4-yl)-1-(2,2-difluoro-1,3-benzodioxol-5-yl)cyclopropanecarboxamide]
8530 nM	28%	O=C(NC1CC2(CNC2)Oc2cc(F)ccc21)C1(c2ccc3c(c2)OC(F)(F)O3)CC1 (centres unmarked) [Example 103, 1-(2,2-difluoro-1,3-benzodioxol-5-yl)-N-(7′-fluoro-3′,4′-dihydrospiro[azetidine-3,2′-chromen]-4′-yl)cyclopropanecarboxamide]
6580 nM	49%	CS(=O)(=O)N1CC2(CC(NC(=O)C3(c4ccc5c(c4)OC(F)(F)O5)CC3)c3ccc(F)cc3O2)C1 (centres unmarked) [Example 104, 1-(2,2-difluoro-1,3-benzodioxol-5-yl)-N-[7′-fluoro-1-(methylsulfonyl)-3′,4′-dihydrospiro[azetidine-3,2′-chromen]-4′-yl]cyclopropanecarboxamide]
7460 nM	34%	CC(=O)N1CC2(CC(NC(=O)C3(c4ccc5c(c4)OC(F)(F)O5)CC3)c3ccc(F)cc3O2)C1 (centres unmarked) [Example 105, N-(1-acetyl-7′-fluoro-3′,4′-dihydrospiro[azetidine-3,2′-chromen]-4′-yl)-1-(2,2-difluoro-1,3-benzodioxol-5-yl)cyclopropanecarboxamide]
310 nM	88%	O=C(O)c1cccc([C@H]2C[C@@H](NC(=O)C3(c4ccc5c(c4)OC(F)(F)O5)CC3)c3ccc(OCCF)cc3O2)c1 [Example 106, 3-[(2R,4R)-4-({[1-(2,2-difluoro-1,3-benzodioxol-5-yl)cyclopropyl]carbonyl}amino)-7-(2-fluoroethoxy)-3,4-dihydro-2H-chromen-2-yl]benzoic acid]
1130 nM	99%	COc1ccc2c(c1)OC1(CCN(C(=O)C(C)(C)CO)CC1)CC2NC(=O)C1(c2ccc3c(c2)OC(F)(F)O3)CC1 (centres unmarked) [Example 107, 1-(2,2-difluoro-1,3-benzodioxol-5-yl)-N-[1′-(3-hydroxy-2,2-dimethylpropanoyl)-7-methoxy-3,4-dihydrospiro[chromene-2,4′-piperidin]-4-yl]cyclopropanecarboxamide]
280 nM	115%	COC(=O)c1ccc([C@H]2C[C@@H](NC(=O)C3(c4ccc5c(c4)OC(F)(F)O5)CC3)c3ccc(OC)cc3O2)cc1 [Example 110, methyl 4-[(2R,4R)-4-({[1-(2,2-difluoro-1,3-benzodioxol-5-yl)cyclopropyl]carbonyl}amino)-7-methoxy-3,4-dihydro-2H-chromen-2-yl]benzoate]
7640 nM	59%	COc1ccc2c(c1)OC(C1CNC1)CC2NC(=O)C1(c2ccc3c(c2)OC(F)(F)O3)CC1 (centres unmarked) [Example 116, N-[2-(azetidin-3-yl)-7-methoxy-3,4-dihydro-2H-chromen-4-yl]-1-(2,2-difluoro-1,3-benzodioxol-5-yl)cyclopropanecarboxamide]
500 nM	110%	COC(=O)c1ccc([C@H]2C[C@@H](NC(=O)C3(c4ccc5c(c4)OC(F)(F)O5)CC3)c3ccccc3O2)cc1 [Example 120, methyl 4-[(2R,4R)-4-({[1-(2,2-difluoro-1,3-benzodioxol-5-yl)cyclopropyl]carbonyl}amino)-3,4-dihydro-2H-chromen-2-yl]benzoate]
50 nM	115%	COC(=O)c1ccc([C@H]2C[C@@H](NC(=O)C3(c4ccc5c(c4)OC(F)(F)O5)CC3)c3ccc(OC(F)F)cc3O2)cc1 [Example 123, methyl 4-[(2R,4R)-4-({[1-(2,2-difluoro-1,3-benzodioxol-5-yl)cyclopropyl]carbonyl}amino)-7-(difluoromethoxy)-3,4-dihydro-2H-chromen-2-yl]benzoate]
6760 nM	26%	CC1(C)CC(NC(=O)C2(c3ccc4c(c3)OC(F)(F)O4)CC2)c2ccc(O)cc2O1 (centres unmarked) [Example 124, 1-(2,2-difluoro-1,3-benzodioxol-5-yl)-N-(7-hydroxy-2,2-dimethyl-3,4-dihydro-2H-chromen-4-yl)cyclopropanecarboxamide]
2140 nM	115%	CC1(C)CC(NC(=O)C2(c3ccc4c(c3)OC(F)(F)O4)CC2)c2ccc(OC(F)F)cc2O1 (centres unmarked) [Example 125, 1-(2,2-difluoro-1,3-benzodioxol-5-yl)-N-[7-(difluoromethoxy)-2,2-dimethyl-3,4-dihydro-2H-chromen-4-yl]cyclopropanecarboxamide]
1380 nM	79%	COc1ccc2c(c1)OC(C1CCCO1)CC2NC(=O)C1(c2ccc3c(c2)OC(F)(F)O3)CC1 (centres unmarked) [Example 126, 1-(2,2-difluoro-1,3-benzodioxol-5-yl)-N-[7-methoxy-2-(tetrahydrofuran-2-yl)-3,4-dihydro-2H-chromen-4-yl]cyclopropanecarboxamide]
2810 nM	65%	COC(=O)c1ccc([C@H]2C[C@@H](NC(=O)C3(c4ccc5c(c4)OC(F)(F)O5)CC3)c3ccc(O)cc3O2)cc1 [Example 127, methyl 4-[(2R,4R)-4-({[1-(2,2-difluoro-1,3-benzodioxol-5-yl)cyclopropyl]carbonyl}amino)-7-hydroxy-3,4-dihydro-2H-chromen-2-yl]benzoate]
4570 nM	66%	O=C(O)c1ccc([C@H]2C[C@@H](NC(=O)C3(c4ccc5c(c4)OC(F)(F)O5)CC3)c3ccc(O)cc3O2)cc1 [Example 128, 4-[(2R,4R)-4-({[1-(2,2-difluoro-1,3-benzodioxol-5-yl)cyclopropyl]carbonyl}amino)-7-hydroxy-3,4-dihydro-2H-chromen-2-yl]benzoic acid]
6200 nM	44%	COc1ccc2c(c1)OC1(CC(C(=O)O)C1)CC2NC(=O)C1(c2ccc3c(c2)OC(F)(F)O3)CC1 (centres unmarked) [Example 129, 4-({[1-(2,2-difluoro-1,3-benzodioxol-5-yl)cyclopropyl]carbonyl}amino)-7-methoxy-3,4-dihydrospiro[chromene-2,1′-cyclobutane]-3′-carboxylic acid]
140 nM	131%	COC(=O)c1ccc([C@H]2C[C@@H](NC(=O)C3(c4ccc5c(c4)OC(F)(F)O5)CC3)c3ccc(OC)cc3O2)cc1F [Example 137, methyl 4-[(2R,4R)-4-({[1-(2,2-difluoro-1,3-benzodioxol-5-yl)cyclopropyl]carbonyl}amino)-7-methoxy-3,4-dihydro-2H-chromen-2-yl]-2-fluorobenzoate]
